From US9474279B2, “Methods of controlling insects” (Syngenta Participations AG, priority 2012, dated 2016)

system: Nephotettix virescens (Green Leafhopper); test: Nephotettix virescens (Green Leafhopper) rice seedling spray test, mortality; type: in vivo; details: application rate 3 ppm; N5 nymphs; mortality 5 days after treatment
Description: […] Nephotettix virescens (Green Leafhopper) Rice seedlings are treated with the diluted test solutions in a spray chamber. After drying, plants are infested with 10 N5 nymphs (3 replicates). 5 days after the treatment samples are checked for mortality.

SMILES	Control/% [%]
Cc1cc(C2=NO[C@@](c3cc(Cl)cc(Cl)c3)(C(F)(F)F)C2)ccc1C(=O)N[C@@H]1CON(CC(F)(F)F)C1=O [Compound A9]	100
CCN1OC[C@@H](NC(=O)c2ccc(C3=NO[C@@](c4cc(Cl)cc(Cl)c4)(C(F)(F)F)C3)cc2C)C1=O [Compound A3]	90

same assay, conditions: application rate 12 ppm; N5 nymphs; mortality 5 days after treatment

SMILES	Control/% [%]
Cc1cc(C2=NO[C@@](c3cc(Cl)cc(Cl)c3)(C(F)(F)F)C2)ccc1C(=O)N[C@@H]1CON(CC(F)(F)F)C1=O [Compound A9]	100
CCN1OC[C@@H](NC(=O)c2ccc(C3=NO[C@@](c4cc(Cl)cc(Cl)c4)(C(F)(F)F)C3)cc2C)C1=O [Compound A3]	100

same assay, conditions: application rate 50 ppm; N5 nymphs; mortality 5 days after treatment

SMILES	Control/% [%]
Cc1cc(C2=NO[C@@](c3cc(Cl)cc(Cl)c3)(C(F)(F)F)C2)ccc1C(=O)N[C@@H]1CON(CC(F)(F)F)C1=O [Compound A9]	100
CCN1OC[C@@H](NC(=O)c2ccc(C3=NO[C@@](c4cc(Cl)cc(Cl)c4)(C(F)(F)F)C3)cc2C)C1=O [Compound A3]	100

same assay, conditions: application rate 200 ppm; N5 nymphs; mortality 5 days after treatment

SMILES	Control/% [%]
Cc1cc(C2=NO[C@@](c3cc(Cl)cc(Cl)c3)(C(F)(F)F)C2)ccc1C(=O)N[C@@H]1CON(CC(F)(F)F)C1=O [Compound A9]	100
CCN1OC[C@@H](NC(=O)c2ccc(C3=NO[C@@](c4cc(Cl)cc(Cl)c4)(C(F)(F)F)C3)cc2C)C1=O [Compound A3]	100

system: Nilaparvata lugens (Brown Plant Hopper); test: Nilaparvata lugens (Brown Plant Hopper) rice seedling spray test, mortality; type: in vivo; details: rate 12.5 ppm; N3 nymphs; mortality 6-12 days after treatment
Description: Nilaparvata lugens (Brown Plant Hopper) Rice seedlings are treated with the diluted test solutions in a spray chamber. After drying, plants are infested with 20 N3 nymphs (2 replicates). 6-12 days after the treatment samples are checked for mortality

SMILES	Control/% [%]
CCN1OCC(NC(=O)c2ccc(C3=NOC(c4cc(Cl)c(Cl)c(Cl)c4)(C(F)(F)F)C3)cc2C)C1=O (mixture of isomers) [Compound A6]	100
Cc1cc(C2=NOC(c3cc(Cl)cc(Cl)c3)(C(F)(F)F)C2)ccc1C(=O)NC1CON(CC(F)(F)F)C1=O (mixture of isomers) [Compound A2]	80
CCN1OC[C@@H](NC(=O)c2ccc(C3=NO[C@@](c4cc(Cl)c(F)c(Cl)c4)(C(F)(F)F)C3)cc2Cl)C1=O [Compound A25]	100
CCN1OCC(NC(=O)c2ccc(C3=NOC(c4cc(F)cc(Cl)c4)(C(F)(F)F)C3)cc2C)C1=O (mixture of isomers) [Compound A11]	80
CCN1OCC(NC(=O)c2ccc(C3=NCC(c4cc(Cl)cc(Cl)c4)(C(F)(F)F)C3)cc2C)C1=O (centres unmarked) [Compound B2]	15
CCN1OCC(NC(=O)c2ccc(C3=NOC(c4cc(Cl)cc(Cl)c4)(C(F)(F)F)C3)cc2C)C1=O (mixture of isomers) [Compound A18]	100
CCN1OC[C@@H](NC(=O)c2ccc(C3=NO[C@@](c4cc(Cl)c(Cl)c(Cl)c4)(C(F)(F)F)C3)cc2Br)C1=O [Compound A33]	80
Cc1cc(C2=NOC(c3cc(Cl)c(Cl)c(Cl)c3)(C(F)(F)F)C2)ccc1C(=O)NC1CON(CC(F)(F)F)C1=O (mixture of isomers) [Compound A23]	90
CCN1OC[C@@H](NC(=O)c2ccc(C3=NO[C@@](c4cc(Cl)cc(C(F)(F)F)c4)(C(F)(F)F)C3)c3ccccc23)C1=O [Compound A26]	83
CCN1OC[C@@H](NC(=O)c2ccc(C3=NO[C@@](c4cc(Cl)c(Cl)c(Cl)c4)(C(F)(F)F)C3)cc2C(F)(F)F)C1=O [Compound A29]	55
Cc1cc(C2=NO[C@@](c3cc(Cl)c(F)c(Cl)c3)(C(F)(F)F)C2)ccc1C(=O)N[C@@H]1CON(CC(F)(F)F)C1=O [Compound A14]	100
Cc1cc(C2=NO[C@@](c3cc(Cl)cc(Cl)c3)(C(F)(F)F)C2)ccc1C(=O)N[C@@H]1CON(CC(F)(F)F)C1=O [Compound A9]	98
CCN1OC[C@@H](NC(=O)c2ccc(C3=NO[C@@](c4cccc(C(F)(F)F)c4)(C(F)(F)F)C3)cc2C)C1=O [Compound A30]	93
CCN1OC[C@@H](NC(=O)c2ccc(C3=NO[C@@](c4cc(Cl)cc(Cl)c4)(C(F)(F)F)C3)cc2C)C1=O [Compound A3]	100
CCN1OC[C@@H](NC(=O)c2ccc(C3=NO[C@@](c4cc(Cl)cc(C(F)(F)F)c4)(C(F)(F)F)C3)cc2C)C1=O [Compound A15]	99
Cc1cc(C2=NCC(c3cc(Cl)cc(Cl)c3)(C(F)(F)F)C2)ccc1C(=O)NC1CON(CC(F)(F)F)C1=O (centres unmarked) [Compound B3]	100
CCN1OCC(NC(=O)c2ccc(C3=NOC(c4cc(Cl)cc(Cl)c4)(C(F)(F)F)C3)cc2C)C1=O (mixture of isomers) [Compound A4]	88
CCN1OCC(NC(=O)c2ccc(C3=NCC(c4cc(Cl)cc(Cl)c4)(C(F)(F)F)C3)cc2C)C1=O (mixture of isomers) [Compound B1]	0

same assay, conditions: rate 25 ppm; N3 nymphs; mortality 6-12 days after treatment

SMILES	Control/% [%]
CCN1OCC(NC(=O)c2ccc(C3=NOC(c4cc(Cl)c(Cl)c(Cl)c4)(C(F)(F)F)C3)cc2C)C1=O (mixture of isomers) [Compound A6]	100
Cc1cc(C2=NOC(c3cc(Cl)cc(Cl)c3)(C(F)(F)F)C2)ccc1C(=O)NC1CON(CC(F)(F)F)C1=O (mixture of isomers) [Compound A2]	98
CCN1OC[C@@H](NC(=O)c2ccc(C3=NO[C@@](c4cc(Cl)c(F)c(Cl)c4)(C(F)(F)F)C3)cc2Cl)C1=O [Compound A25]	100
CCN1OCC(NC(=O)c2ccc(C3=NOC(c4cc(F)cc(Cl)c4)(C(F)(F)F)C3)cc2C)C1=O (mixture of isomers) [Compound A11]	55
CCN1OCC(NC(=O)c2ccc(C3=NCC(c4cc(Cl)cc(Cl)c4)(C(F)(F)F)C3)cc2C)C1=O (centres unmarked) [Compound B2]	70
CCN1OCC(NC(=O)c2ccc(C3=NOC(c4cc(Cl)cc(Cl)c4)(C(F)(F)F)C3)cc2C)C1=O (mixture of isomers) [Compound A18]	100
CCN1OC[C@@H](NC(=O)c2ccc(C3=NO[C@@](c4cc(Cl)c(Cl)c(Cl)c4)(C(F)(F)F)C3)cc2Br)C1=O [Compound A33]	98
Cc1cc(C2=NOC(c3cc(Cl)c(Cl)c(Cl)c3)(C(F)(F)F)C2)ccc1C(=O)NC1CON(CC(F)(F)F)C1=O (mixture of isomers) [Compound A23]	98
CCN1OC[C@@H](NC(=O)c2ccc(C3=NO[C@@](c4cc(Cl)cc(C(F)(F)F)c4)(C(F)(F)F)C3)c3ccccc23)C1=O [Compound A26]	100
CCN1OC[C@@H](NC(=O)c2ccc(C3=NO[C@@](c4cc(Cl)c(Cl)c(Cl)c4)(C(F)(F)F)C3)cc2C(F)(F)F)C1=O [Compound A29]	88
Cc1cc(C2=NO[C@@](c3cc(Cl)c(F)c(Cl)c3)(C(F)(F)F)C2)ccc1C(=O)N[C@@H]1CON(CC(F)(F)F)C1=O [Compound A14]	100
Cc1cc(C2=NO[C@@](c3cc(Cl)cc(Cl)c3)(C(F)(F)F)C2)ccc1C(=O)N[C@@H]1CON(CC(F)(F)F)C1=O [Compound A9]	100
CCN1OC[C@@H](NC(=O)c2ccc(C3=NO[C@@](c4cccc(C(F)(F)F)c4)(C(F)(F)F)C3)cc2C)C1=O [Compound A30]	100
CCN1OC[C@@H](NC(=O)c2ccc(C3=NO[C@@](c4cc(Cl)cc(Cl)c4)(C(F)(F)F)C3)cc2C)C1=O [Compound A3]	100
CCN1OC[C@@H](NC(=O)c2ccc(C3=NO[C@@](c4cc(Cl)cc(C(F)(F)F)c4)(C(F)(F)F)C3)cc2C)C1=O [Compound A15]	99
Cc1cc(C2=NCC(c3cc(Cl)cc(Cl)c3)(C(F)(F)F)C2)ccc1C(=O)NC1CON(CC(F)(F)F)C1=O (centres unmarked) [Compound B3]	100
CCN1OCC(NC(=O)c2ccc(C3=NOC(c4cc(Cl)cc(Cl)c4)(C(F)(F)F)C3)cc2C)C1=O (mixture of isomers) [Compound A4]	93
CCN1OCC(NC(=O)c2ccc(C3=NCC(c4cc(Cl)cc(Cl)c4)(C(F)(F)F)C3)cc2C)C1=O (mixture of isomers) [Compound B1]	78

same assay, conditions: rate 50 ppm; N3 nymphs; mortality 6-12 days after treatment

SMILES	Control/% [%]
CCN1OCC(NC(=O)c2ccc(C3=NOC(c4cc(Cl)c(Cl)c(Cl)c4)(C(F)(F)F)C3)cc2C)C1=O (mixture of isomers) [Compound A6]	100
Cc1cc(C2=NOC(c3cc(Cl)cc(Cl)c3)(C(F)(F)F)C2)ccc1C(=O)NC1CON(CC(F)(F)F)C1=O (mixture of isomers) [Compound A2]	99
CCN1OC[C@@H](NC(=O)c2ccc(C3=NO[C@@](c4cc(Cl)c(F)c(Cl)c4)(C(F)(F)F)C3)cc2Cl)C1=O [Compound A25]	100
CCN1OCC(NC(=O)c2ccc(C3=NOC(c4cc(F)cc(Cl)c4)(C(F)(F)F)C3)cc2C)C1=O (mixture of isomers) [Compound A11]	100
CCN1OCC(NC(=O)c2ccc(C3=NCC(c4cc(Cl)cc(Cl)c4)(C(F)(F)F)C3)cc2C)C1=O (centres unmarked) [Compound B2]	88
CCN1OCC(NC(=O)c2ccc(C3=NOC(c4cc(Cl)cc(Cl)c4)(C(F)(F)F)C3)cc2C)C1=O (mixture of isomers) [Compound A18]	100
CCN1OC[C@@H](NC(=O)c2ccc(C3=NO[C@@](c4cc(Cl)c(Cl)c(Cl)c4)(C(F)(F)F)C3)cc2Br)C1=O [Compound A33]	98
Cc1cc(C2=NOC(c3cc(Cl)c(Cl)c(Cl)c3)(C(F)(F)F)C2)ccc1C(=O)NC1CON(CC(F)(F)F)C1=O (mixture of isomers) [Compound A23]	100
CCN1OC[C@@H](NC(=O)c2ccc(C3=NO[C@@](c4cc(Cl)cc(C(F)(F)F)c4)(C(F)(F)F)C3)c3ccccc23)C1=O [Compound A26]	100
CCN1OC[C@@H](NC(=O)c2ccc(C3=NO[C@@](c4cc(Cl)c(Cl)c(Cl)c4)(C(F)(F)F)C3)cc2C(F)(F)F)C1=O [Compound A29]	100
Cc1cc(C2=NO[C@@](c3cc(Cl)c(F)c(Cl)c3)(C(F)(F)F)C2)ccc1C(=O)N[C@@H]1CON(CC(F)(F)F)C1=O [Compound A14]	100
Cc1cc(C2=NO[C@@](c3cc(Cl)cc(Cl)c3)(C(F)(F)F)C2)ccc1C(=O)N[C@@H]1CON(CC(F)(F)F)C1=O [Compound A9]	100
CCN1OC[C@@H](NC(=O)c2ccc(C3=NO[C@@](c4cccc(C(F)(F)F)c4)(C(F)(F)F)C3)cc2C)C1=O [Compound A30]	98
CCN1OC[C@@H](NC(=O)c2ccc(C3=NO[C@@](c4cc(Cl)cc(Cl)c4)(C(F)(F)F)C3)cc2C)C1=O [Compound A3]	100
CCN1OC[C@@H](NC(=O)c2ccc(C3=NO[C@@](c4cc(Cl)cc(C(F)(F)F)c4)(C(F)(F)F)C3)cc2C)C1=O [Compound A15]	100
Cc1cc(C2=NCC(c3cc(Cl)cc(Cl)c3)(C(F)(F)F)C2)ccc1C(=O)NC1CON(CC(F)(F)F)C1=O (centres unmarked) [Compound B3]	100
CCN1OCC(NC(=O)c2ccc(C3=NOC(c4cc(Cl)cc(Cl)c4)(C(F)(F)F)C3)cc2C)C1=O (mixture of isomers) [Compound A4]	100
CCN1OCC(NC(=O)c2ccc(C3=NCC(c4cc(Cl)cc(Cl)c4)(C(F)(F)F)C3)cc2C)C1=O (mixture of isomers) [Compound B1]	90

system: Chilo suppressalis (Rice Stem Borer); test: Chilo suppressalis (Rice Stem Borer) treated rice leaf petri dish test, mortality; type: in vivo; details: application rate 0.05 ppm; L2 larvae; mortality 5 days after treatment
Description: Chilo suppressalis (Rice Stem Borer) Rice seedlings are treated and after drying the leaves are cut and transferred into a petri dish coated with wet filter paper. 10 larvae (L2) are added and the dish is covered with a filter tissue and a plastic lid. 5 days after treatment the percentage mortality is assessed (3 replicates per concentration).

SMILES	Control/% [%]
Cc1cc(C2=NO[C@@](c3cc(Cl)cc(Cl)c3)(C(F)(F)F)C2)ccc1C(=O)N[C@@H]1CON(CC(F)(F)F)C1=O [Compound A9]	43
CCN1OC[C@@H](NC(=O)c2ccc(C3=NO[C@@](c4cc(Cl)cc(Cl)c4)(C(F)(F)F)C3)cc2C)C1=O [Compound A3]	97

same assay, conditions: application rate 0.2 ppm; L2 larvae; mortality 5 days after treatment

SMILES	Control/% [%]
Cc1cc(C2=NO[C@@](c3cc(Cl)cc(Cl)c3)(C(F)(F)F)C2)ccc1C(=O)N[C@@H]1CON(CC(F)(F)F)C1=O [Compound A9]	100
CCN1OC[C@@H](NC(=O)c2ccc(C3=NO[C@@](c4cc(Cl)cc(Cl)c4)(C(F)(F)F)C3)cc2C)C1=O [Compound A3]	100

same assay, conditions: application rate 0.8 ppm; L2 larvae; mortality 5 days after treatment

SMILES	Control/% [%]
Cc1cc(C2=NO[C@@](c3cc(Cl)cc(Cl)c3)(C(F)(F)F)C2)ccc1C(=O)N[C@@H]1CON(CC(F)(F)F)C1=O [Compound A9]	100
CCN1OC[C@@H](NC(=O)c2ccc(C3=NO[C@@](c4cc(Cl)cc(Cl)c4)(C(F)(F)F)C3)cc2C)C1=O [Compound A3]	100
